Laboratory results published in US20040204577A1, “Novel peptide-forming enzyme gene” (Ajinomoto Co., Inc., priority 2003, published 2004).
Where a SMILES comes first, the peptide text is derived from it. [ ]: non-standard residue; d: D form. The star is where a group is joined. 2Nal = N[C@@H](Cc1ccc2ccccc2c1)C(=O)O; Cha = N[C@@H](CC1CCCCC1)C(=O)O; Tle = CC(C)(C)[C@H](N)C(=O)O; Boc = CC(C)(C)OC(=O)*; tBu = CC(C)(C)*

Key:
Format in all cases: biochemical, Empedobacter brevis
[1] = test system: peptide-forming enzyme (Mono S fraction enzyme); assay: Enzyme substrate specificity (1)-(10), (13), (14): peptide production; design: key: +: those peptides for which production was confirmed but which were unable to be quantified due to the absence of a standard; a trace amount; details: 0.1 unit enzyme, 25° C.
Protocol: (§1) Ester specificity was examined in the case of using L-amino acid ester for the carboxy component. 2 μl of the same enzyme fraction as used in Example 5 was added to 100 μl of 100 mM borate buffer (pH 9.0) containing the carboxy components indicated in Table 4 at 100 mM, 200 mM L-glutamine and 10 mM EDTA, and allowed to react at 25° C. for 2 hours. HCl represents hydrochloride in Table 4.
(§2) Peptide production was examined in the case of using L-alanine methyl ester for the carboxy component and using various L-amino acids for the amine component.
(§3) Peptide production was examined in the case of using various types of L-amino acid methyl esters for the carboxy component and using L-glutamine for the amine component. 2 μl of the same enzyme fraction as used in Example 5 was added to 100 μl of 100 mM borate buffer (pH 9.0) containing the L-amino acid methyl ester hydrochloride salts (AA-OMe.HCl) shown in Table 6 at 100 mM, 150 mM L-glutamine and 10 mM EDTA, and allowed to react at 25° C. for 3 hours. […] Furthermore, Tween-80 was added to the reaction system to a final concentration of 0.1% in the case of using L-Trp-OMe and L-Tyr-OMe.
(§4) Peptide production was examined in the case of using various L-amino acid methyl esters for the carboxy component and various L-amino acids for the amine component. 2 μl of the same enzyme fraction as used in Example 5 was added to 100 μl of 100 mM borate buffer (pH 9.0) containing the L-amino acid methyl ester hydrochloride salts (AA-OMe.HCl) shown in Table 7 at 100 mM, the L-amino acids shown in Table 7 at 150 mM and 10 mM EDTA, and allowed to react at 25° C. for 3 hours. The “tr” indicates a trace amount. Furthermore, Tween-80 was added to the reaction system to a final concentration of 0.1% in the case of using L-Trp-OMe.
Peptide production was examined in the case of using the L or D forms of various amino acid methyl esters for the carboxy component, and the L or D forms of various amino acids for the amine component. 2 μl of the same enzyme fraction as used in Example 5 was added to 100 μl of 100 mM borate buffer (pH 9.0) containing the various amino acid methyl ester hydrochloride salts (AA-OMe HCl) shown in Table 8 at 100 mM, the various amino acids shown in Table 8 at 150 mM and 10 mM EDTA, and allowed to react at 25° C. for 3 hours. The “tr” indicates a trace amount.
Peptide production was examined using various L-amino acid amides for the carboxy component, and various L-amino acids for the amine component. 2 μl of the same enzyme fraction as that used in Example 5 was added to 100 μl of 100 mM borate buffer (pH 9.0) containing the L-amino acid amide hydrochloride salt (M-NH2.HCl) shown in Table 9 at 100 mM, the L-amino acids shown in Table 9 at 150 mM and 10 mM EDTA, and allowed to react at 25° C. for 3 hours.
Peptide production was examined in the case of using various L-alanine methyl esters for the carboxy component and C-protected L-amino acids for the amine component. 2 μl of the same enzyme fraction as used in Example 5 was added to 100 μl of 100 mM borate buffer (pH 9.0) containing the L-alanine methyl ester hydrochloride hydrochloride salt (Ala-OMe.HCl) shown in Table 10 at 100 mM, the L-amino acid amide hydrochloride salts shown in Table 10 at 150 mM and 10 mM EDTA, and allowed to react at 25° C. for 3 hours.
Peptide production was examined in the case of using various amino acid methyl esters for the carboxy component and methylamine for the amine component. 2 μl of the same enzyme fraction as used in Example 5 was added to 100 μl of 100 mM borate buffer (pH 9.0) containing the amino acid methyl ester hydrochloride salt (M-OMe.HCl) shown in Table 11 at 100 mM, the methylamine shown in Table 11 at 150 mM and 10 mM EDTA, and allowed to react at 25° C. for 3 hours.
Peptide production was examined in the case of using […] for the carboxy component or β-amino acid for the amine component.

[2] = test system: peptide-forming enzyme (Mono S fraction enzyme); assay: as above; design: key: +: those for which production was confirmed but which were unable to be quantified due to the absence of a standard; a trace amount; details: 0.1 unit enzyme, 25° C.
Protocol: as §1, §2, §3, §4
Peptide production was examined in the case of using the L or D forms of various amino acid methyl esters for the carboxy component, and the L or D forms of various amino acids for the amine component. […]

[3] = test system: peptide-forming enzyme (Mono S fraction enzyme); assay: as above; details: L-amino acid ester 100 mM, peptide (amine component) 150 mM, pH 9.0, 25° C., 3 hours
Procedure, shortened: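 Mono S enzyme fraction in 100 mM borate buffer (pH 9.0) with 10 mM EDTA and 100 mM carboxy component (amino acid methyl esters or amides); amine components (L-glutamine, amino acids, amino acid amides or methylamine) at 150 mM, or 200 mM L-glutamine with varied esters. Reactions ran at 25° C for 2–3 hours; 0.1% Tween-80 added for Trp/Tyr-OMe.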

[4] = test system: peptide-forming enzyme (Mono S fraction enzyme); assay: Production of L-alanyl-L-glutamine from L-alanine methyl ester and L-glutamine with enzyme fraction; details: 100 mM L-alanine methyl ester hydrochloride, 200 mM L-glutamine, 10 mM EDTA, pH 9.0, 18° C.; FIG. 3
Protocol: On the other hand, there was hardly any production of L-Ala-L-Gln observed in an enzyme-non-added lot, and the […] was only about 0.07 mM after reacting for 120 minutes.

[5] = carboxy component 40 mM, amine component 40 mM, reaction time 3 hr
[6] = carboxy component 100 mM, amine component 150 mM, reaction time 2 hr
[7] = carboxy component 100 mM, amine component 150 mM, reaction time 3 hr

In the case of `NC(=O)CC[C@H](NC(=O)[C@@H](N)Cc1ccc2ccccc2c1)C(=O)O` [H-2-Nal-H-Gln-OH] (H-[2Nal]-Gln-OH), the Produced peptide [1, 5] is reported as “tr”.
`C[C@H](N)C(=O)N[C@@H](Cc1ccc2ccccc2c1)C(=O)O` [H-Ala-2-Nal-OH] (H-Ala-[2Nal]-OH) was tested, and the Produced peptide ([2]; carboxy component 20 mM, amine component 20 mM, reaction time 3 hr) was “+”.
With `N[C@@H](CC1CCCCC1)C(=O)N[C@@H](Cc1ccccc1)C(=O)O` [H-CHA-Phe-OH] (H-[Cha]-Phe-OH) the Produced peptide [2, 5] was “+”.
For `NC(=O)CC[C@H](NC(=O)[C@@H](N)Cc1ccc(Cl)cc1)C(=O)O` [H-Cl-F-Phe-H-Gln-OH], the Produced peptide ([1]; carboxy component 25 mM, amine component 50 mM, reaction time 3 hr) was “tr”.
With `CC(C)(C)OC(=O)NCCCC[C@H](N)C(=O)N[C@@H](CCC(N)=O)C(=O)O` [H-Lys(Boc)-Gln-OH] (H-Lys(Boc)-Gln-OH) the Produced peptide [2, 6] was “+”.
For `CN[C@@H](C)C(=O)N[C@@H](Cc1ccccc1)C(=O)O` [H-N-Me-Ala-Phe-OH], the Produced peptide [1, 7] was “tr”.
`CC(C)(C)OC[C@H](N)C(=O)N[C@@H](CCC(N)=O)C(=O)O` [H-Ser(tBu)-Gln-OH] (H-Ser(tBu)-Gln-OH) was tested, and the Produced peptide [1, 6] was “tr”.
With `NC(=O)CC[C@H](NC(=O)[C@@H](N)Cc1ccc(F)cc1)C(=O)O` [H-p-F-Phe-H-Gln-OH] the Produced peptide [1, 7] was “tr”.
`CC(C)(C)[C@H](N)C(=O)N[C@@H](CCC(N)=O)C(=O)O` [H-t-Leu-H-Gln-OH] (H-[Tle]-Gln-OH) was tested, and the Produced peptide [1, 7] was “tr”.
In the case of L-Ala-L-Ala-L-Gln, the Produced peptide [3] is reported as 15.2 mM and the “Peptide formed, enzyme-added lot” value [4] is reported as 1.3 mM.
